pIC50: −log10 of the molar value. ≈ marks a conversion by molar mass, not a printed value. Values belong to the compound of their own block, whether it stands above or below them.
How the values were obtained:
[1] = tested on: P388; assay: Cytotoxicity against mouse P388 cells assessed as reduction in cell viability; assay type: functional; settings: read-out: ED50 (the source's name)
[2] = tested on: HepG2; assay: Cytotoxicity against human HepG2 cells assessed as reduction in cell growth incubated for 48 hrs by SRB assay; assay type: functional, cell-based; settings: HepG2, 48 h
[3] = tested on: SF-268; assay: Cytotoxicity against human SF-268 cells assessed as reduction in cell growth incubated for 48 hrs by SRB assay; assay type: functional, cell-based; settings: SF-268, 48 h
[4] = tested on: NCI-H460; assay: Cytotoxicity against human NCI-H460 cells assessed as reduction in cell growth incubated for 48 hrs by SRB assay; assay type: functional, cell-based; settings: NCI-H460, 48 h
[5] = tested on: MCF7; assay: Cytotoxicity against human MCF7 cells assessed as reduction in cell growth incubated for 48 hrs by SRB assay; assay type: functional, cell-based; settings: MCF7, 48 h
[6] = tested on: HT-29; assay: Cytotoxicity against human HT-29 cells assessed as inhibition of cell growth; assay type: functional, cell-based
[7] = tested on: SK-MEL-28; assay: Cytotoxicity against human SK-MEL-28 cells assessed as inhibition of cell growth; assay type: functional, cell-based
[8] = tested on: P388; assay: Cytotoxicity against mouse P388 cells assessed as inhibition of cell growth; assay type: functional, cell-based
[9] = tested on: A549; assay: Cytotoxicity against human A549 cells assessed as inhibition of cell growth; assay type: functional, cell-based
[10] = tested on: MDA-MB-231; assay: Antiproliferative activity against human MDA-MB-231 cells assessed as reduction in cell viability incubated for 72 hrs by SRB assay; assay type: functional, cell-based; settings: MDA-MB-231, 72 h
[11] = tested on: HT-29; assay: Antiproliferative activity against human HT-29 cells assessed as reduction in cell viability incubated for 72 hrs by SRB assay; assay type: functional, cell-based; settings: HT-29, 72 h
[12] = tested on: A549; assay: Antiproliferative activity against human A549 cells assessed as reduction in cell viability incubated for 72 hrs by SRB assay; assay type: functional, cell-based; settings: A549, 72 h
[13] = tested on: P388; assay: Cytotoxicity against mouse P388 cells; assay type: functional; settings: read-out: ED50 (the source's name)
[14] = tested on: U-937; assay: Cytotoxicity against human U-937 cells assessed as reduction in cell growth incubated for 48 hrs by CCK-8 assay; assay type: functional, cell-based; settings: U-937, 48 h
[15] = tested on: HCT-116; assay: Antiproliferative activity against human HCT-116 cells assessed as reduction in cell viability incubated for 24 hrs by MTT assay; assay type: functional, cell-based; settings: HCT-116, 24 h
[16] = tested on: DU-145; assay: Cytotoxicity against human DU-145 cells assessed as cell growth inhibition measured after 48 hrs by MTT assay; assay type: functional, cell-based; settings: DU-145, 48 h
[17] = tested on: QG-56; assay: Cytotoxicity against human QG-56 cells assessed as reduction in cell growth incubated for 24 hrs by MTT assay; assay type: functional, cell-based; settings: QG-56, 24 h
[18] = tested on: HL-60; assay: Cytotoxicity against human HL-60 cells assessed as reduction in cell viability by MTT assay; assay type: functional, cell-based
[19] = tested on: A549; assay: Cytotoxicity against human A549 cells assessed as reduction in cell viability measured for 48 hrs by MTT assay; assay type: functional, cell-based; settings: A549, 48 h
[20] = tested on: Bel-7402; assay: Cytotoxicity against human Bel-7402 cells assessed as reduction in cell viability measured for 48 hrs by MTT assay; assay type: functional, cell-based; settings: Bel-7402, 48 h
[21] = tested on: MOLT-4; assay: Cytotoxicity against human MOLT-4 cells assessed as reduction in cell viability by MTT assay; assay type: functional, cell-based

SMILES: CC(C)[C@]12SSSS[C@]3(C(=O)N1C)[C@@H](O)C1(c4c[nH]c5ccccc45)c4ccccc4N[C@@H]1N3C2=O (some centres not stated)
EC50 [1]: 0.056 µg/mL (≈ 0.101 µM)

SMILES: CS[C@]1(CO)C(=O)n2c(cc3ccccc32)C(=O)N1C
pIC50 [2]: 4.54 | pIC50 [3]: 4.45 | pIC50 [4]: < 4.00 | pIC50 [5]: 4.53

SMILES: COc1c(C)cc2c(c1O)[C@H]1[C@@H]3[C@@H]4SC[C@H](N)C(=O)OC[C@@H](c5c(O)c(OC)c(C)c(OC(C)=O)c54)N3[C@@H](O)[C@@H](C2)N1C
IC50 [6]: 0.002 µg/mL (≈ 0.00325 µM) | IC50 [7]: 0.002 µg/mL (≈ 0.00325 µM) | pIC50 [8]: 5.70 | IC50 [9]: 0.002 µg/mL (≈ 0.00325 µM)

SMILES: CC(C)[C@]12SS[C@]3(C(=O)N1C)[C@@H](O)C1(c4c[nH]c5ccccc45)c4ccccc4N[C@@H]1N3C2=O (some centres not stated)
EC50 [1]: 0.086 µg/mL (≈ 0.175 µM)

pIC50 [10]: 5.33 | pIC50 [11]: 5.48 | pIC50 [12]: 5.57
SMILES: CN1C[C@@H](c2c[nH]c3cc(Br)ccc23)NC[C@@H]1c1c[nH]c2ccccc12

SMILES: CO[C@@]12C(=O)N(C)[C@@H](CO)C(=O)N1[C@@H]1Nc3ccccc3C1(C13c4ccccc4N[C@@H]1N1C(=O)[C@@]4(C(C)C)SSSS[C@]1(C(=O)N4C)[C@H]3O)[C@@H]2O (some centres not stated)
EC50 [13]: 1.05 µg/mL (≈ 1.36 µM)

SMILES: COc1ccc2c3c([nH]c2c1)[C@H](C=C(C)C)N1C(=O)[C@@H]2CCCN2C(=O)[C@@]1(O)[C@H]3O
pIC50 [14]: 4.03

SMILES: CS[C@]1(C(C)C)C(=O)N2C(=CC3(C45c6ccccc6N[C@H]4N4C(=O)[C@H](CO)N(C)C(=O)[C@@]4(O)[C@H]5O)c4ccccc4N[C@H]23)C(=O)N1C (some centres not stated)
EC50 [13]: 15.2 µg/mL (≈ 23 µM)

SMILES: CC(C)[C@]12SS[C@]3(C(=O)N1C)[C@@H](O)C1(C45c6ccccc6N[C@H]4N4C(=O)[C@@]6(CO)SSSS[C@]4(C(=O)N6C)[C@H]5O)c4ccccc4N[C@@H]1N3C2=O (some centres not stated)
EC50 [1]: 0.00185 µg/mL (≈ 0.0023 µM)

SMILES: CS[C@]1(CO)C(=O)N2[C@H]3C(=CC=C[C@@H]3OC(C)=O)C[C@@]2(SC)C(=O)N1C
pIC50 [2]: 5.15 | pIC50 [3]: 4.47 | pIC50 [4]: 5.47 | pIC50 [5]: 5.51

SMILES: COc1ccc2c3c([nH]c2c1)[C@H](C=C(C)C)N1C(=O)[C@@H]2CCCN2C(=O)[C@]1(O)C3
pIC50 [14]: 4.74

pIC50 [15]: 6.34
SMILES: COC1=C(C)C(=O)C2=C(C1=O)[C@H](CO)N1[C@@H](C#N)[C@@H]3[C@@H](O)c4c(O)c(C)c(OC)c(O)c4[C@H]([C@@H]1C2)N3C
pIC50 [16]: 6.35 | pIC50 [17]: 6.21

SMILES: CSS[C@@]1(C(C)C)C(=O)N2C(=CC3(C45c6ccccc6N[C@H]4N4C(=O)[C@H](CO)N(C)C(=O)[C@@]4(O)[C@H]5O)c4ccccc4N[C@H]23)C(=O)N1C (some centres not stated)
EC50 [13]: 1.1 µg/mL (≈ 1.59 µM)

SMILES: COc1ccc2c(c1)N(/C=C/C(C)(C)OO)C(=O)[C@]21[C@H](C=C(C)C)N2C(=O)[C@@H]3CCCN3C(=O)[C@]2(O)[C@H]1O
pIC50 [18]: 5.64 | pIC50 [19]: 5.51 | pIC50 [20]: 4.01 | pIC50 [21]: 5.51

SMILES: CS[C@@]1(C(C)C)C(=O)N2C(=CC3(C45c6ccccc6N[C@H]4N4C(=O)[C@H](CO)N(C)C(=O)[C@@]4(O)[C@H]5O)c4ccccc4N[C@H]23)C(=O)N1C (some centres not stated)
EC50 [13]: 14.8 µg/mL (≈ 22.4 µM)

SMILES: CC(C)[C@]12SSS[C@]3(C(=O)N1C)[C@@H](O)C1(C45c6ccccc6N[C@H]4N4C(=O)[C@@]6(C(C)C)SS[C@]4(C(=O)N6C)[C@H]5O)c4ccccc4N[C@@H]1N3C2=O (some centres not stated)
EC50 [13]: 0.0022 µg/mL (≈ 0.0028 µM)

SMILES: CC(C)[C@]12SS[C@]3(C(=O)N1C)[C@@H](O)C1(C45c6ccccc6N[C@H]4N4C(=O)[C@@]6(CO)SSS[C@]4(C(=O)N6C)[C@H]5O)c4ccccc4N[C@@H]1N3C2=O (some centres not stated)
EC50 [1]: 0.0024 µg/mL (≈ 0.0031 µM)

SMILES: COc1ccc2c(c1)N(CC=C(C)C)C(=O)[C@]21[C@H](C=C(C)C)N2C(=O)[C@@H]3CCCN3C(=O)[C@]2(O)[C@H]1O
pIC50 [18]: 4.36 | pIC50 [19]: 4.44 | pIC50 [20]: 4.16 | pIC50 [21]: 4.59

SMILES: COc1ccc2c3c(n(CC=C(C)C)c2c1)[C@H](C=C(C)C)N1C(=O)[C@@H]2CCCN2C(=O)[C@]1(O)C3=O
pIC50 [18]: 5.72 | pIC50 [19]: 4.77 | pIC50 [20]: 4.59 | pIC50 [21]: 4.59

SMILES: CC(C)[C@]12SSS[C@]3(C(=O)N1C)[C@@H](O)C1(c4c[nH]c5ccccc45)c4ccccc4N[C@@H]1N3C2=O (some centres not stated)
EC50 [1]: 0.046 µg/mL (≈ 0.0877 µM)
